Data from patent US20260109708A1, “COMPOUNDS AND COMPOSITIONS USEFUL AS DEGRADERS OF MK2 KINASE” (Celgene Corporation, priority 2023, published 2026).

target: T1, p38a activated, mitogen-activated protein kinase-activated protein kinase 2 (MAPKAP-K2 or MK2) enzyme (Homo sapiens, UniProt P49137); experiment: MK2 OMNIA biochemical assay (AssayQuant continuous-read kinase assay); conditions: [MK-2]=0.05 nM, [ATP]=100 μM, [AQT0425]=10 μM
T1 construct: purchased Invitrogen PV3317
Description: Example 56.2. Mitogen-Activated Protein Kinase-Activated Protein Kinase 2 AssayQuant Technologies® Assay for Compound Potency Assessment (MK2 OMNIA Biochemical Assay)
The protocol below describes a continuous-read kinase assay optimized to measure potency of compounds against p38a activated, mitogen-activated protein kinase-activated protein kinase 2 (MAPKAP-K2 or MK2) enzyme.
A 1.25× stock solution of MK2 (PV3317, from Invitrogen) and a 5× stock solution of ATP and Sox conjugated peptide substrate, AQT0425 (CSKS-AQT0425B, from AssayQuant Technologies), were prepared in 1× kinase reaction buffer consisting of 50 mM HEPES, pH 7.5, 0.01% Brij-35, 0.55 mM EGTA, 10 mM MgCl2 and 1 mM DTT.
10 μL of the ATP and substrate solution mix was added to a Coming (3574) 384-well, white, non-binding surface microtiter plate containing 0.5 μL of serially diluted test compounds prepared in DMSO. The reactions were started with the addition of 40 μL of the enzyme solution and monitored every 71 seconds for 240 min at kex 360/λem 485 in a Synergy H4 plate reader from BioTek at room temperature.
The initial linear portions of the net progress curves were fit according to a linear equation to yield the slope and percentage of inhibition (% inhibition) at each compound concentration. The net progress curves obtained during the entirety of reactions were also fit according to an ascending single-exponential equation (Eq. 1) to yield Vobs values at each compound concentration. Plots of % Inhibition versus degrader concentrations were fit according to a dose-response equation (Eq. 2) to generate IC50 and Hill slope values while plots of Vobs versus degrader concentration were fit according to Equation 3 (Eq. 3) to generate apparent Kinact values using the GraphPad PRISM software.
where F is the fluorescence intensity from the plate reader, V0 is a constant reflecting the relationship between the instrument readout and product concentration, t is time, e is Euler's number, and Vobs is the observed inactivation rate constant.
where % Inhibition is percentage of inhibition, IC50 is half maximal inhibitory concentration, [I] is the degraders concentration, and n is the Hill slope.
where kobs is the observed inactivation rate constant, Kinact is the apparent inactivation rate constant, K1 is the apparent inhibition constant, and [I] is the degrader concentration.

T1 sequence (P49137 whole entry): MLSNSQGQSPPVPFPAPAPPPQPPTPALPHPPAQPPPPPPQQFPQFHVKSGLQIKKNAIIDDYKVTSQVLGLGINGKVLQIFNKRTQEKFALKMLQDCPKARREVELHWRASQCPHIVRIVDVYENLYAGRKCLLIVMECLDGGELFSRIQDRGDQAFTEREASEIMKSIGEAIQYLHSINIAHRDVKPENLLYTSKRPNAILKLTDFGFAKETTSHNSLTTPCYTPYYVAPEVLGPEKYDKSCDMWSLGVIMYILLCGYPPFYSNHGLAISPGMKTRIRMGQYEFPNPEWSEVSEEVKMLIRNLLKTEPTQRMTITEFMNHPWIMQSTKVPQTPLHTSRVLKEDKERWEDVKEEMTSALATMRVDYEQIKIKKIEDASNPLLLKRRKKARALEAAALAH

`C[C@@H]1CNc2c(sc3ccc4nc(-c5cccc(N6CCN(C(=O)C(=O)N7CCN(c8ccc(C9CCC(=O)NC9=O)cc8)CC7)CC6)c5)ccc4c23)C(=O)N1` (stereo partly drawn) [Ex 13, 3-(4-(4-(2-(4-(3-((R)-10-Methyl-8-oxo-9,10,11,12-tetrahydro-8H-[1,4]diazepino[5′,6′:4,5]thieno[3,2-f]quinolin-3-yl)phenyl)piperazin-1-yl)-2-oxoacetyl)piperazin-1-yl)phenyl)piperidine-2,6-dione] and `C[C@@H]1CNc2c(sc3ccc4nc(-c5cccc(N6CCN(CCN7CCN(c8ccc(C9CCC(=O)NC9=O)cc8)CC7)CC6)c5)ccc4c23)C(=O)N1` (stereo partly drawn) [Ex 11, 3-(4-(4-(2-(4-(3-((R)-10-Methyl-8-oxo-9,10,11,12-tetrahydro-8H-[1,4]diazepino[5′,6′:4,5]thieno[3,2-f]quinolin-3-yl)phenyl)piperazin-1-yl)ethyl)piperazin-1-yl)phenyl)piperidine-2,6-dione] cannot be ordered by IC50: under 150 nM for the first, under 150 nM for the second.

`C[C@@H]1CNc2c(sc3ccc4nc(-n5cc(C6CCN(CCN7CCN(c8ccc9c(C%10CCC(=O)NC%10=O)nn(C)c9c8)CC7)CC6)nn5)ccc4c23)C(=O)N1` (stereo partly drawn) [Ex 46, 3-(1-Methyl-6-(4-(2-(4-(1-((R)-10-methyl-8-oxo-9,10,11,12-tetrahydro-8H-[1,4]diazepino[5′,6′:4,5]thieno[3,2-f]quinolin-3-yl)-1H-1,2,3-triazol-4-yl)piperidin-1-yl)ethyl)piperazin-1-yl)-1H-indazol-3-yl)piperidine-2,6-dione] and `C[C@@H]1CNc2c(sc3ccc4nc(-c5cnn(C6CN(CCN7CCN(c8ccc9c(C%10CCC(=O)NC%10=O)nn(C)c9c8)CC7)C6)c5)ccc4c23)C(=O)N1` (stereo partly drawn) [Ex 52, 3-(1-Methyl-6-(4-(2-(3-(4-((R)-10-methyl-8-oxo-9,10,11,12-tetrahydro-8H-[1,4]diazepino[5′,6′:4,5]thieno[3,2-f]quinolin-3-yl)-1H-pyrazol-1-yl)azetidin-1-yl)ethyl)piperazin-1-yl)-1H-indazol-3-yl)piperidine-2,6-dione] cannot be ordered by IC50: under 150 nM for the first, under 150 nM for the second.

`C[C@@H]1CNc2c(sc3ccc4nc(-c5ccc(C6CN(CCN7CCN(c8ccc(C9CCC(=O)NC9=O)cc8)CC7)C6)cc5)ccc4c23)C(=O)N1` (stereo partly drawn) [Ex 30, 3-(4-(4-(2-(3-(4-((R)-10-Methyl-8-oxo-9,10,11,12-tetrahydro-8H-[1,4]diazepino[5′,6′:4,5]thieno[3,2-f]quinolin-3-yl)phenyl)azetidin-1-yl)ethyl)piperazin-1-yl)phenyl)piperidine-2,6-dione] and `C[C@@H]1CNc2c(sc3ccc4nc(-c5ccc(N6CC(CN7CCN(c8ccc(C9CCC(=O)NC9=O)cc8)CC7)C6)cc5)ccc4c23)C(=O)N1` (stereo partly drawn) [Ex 41, 3-(4-(4-((1-(4-((R)-10-Methyl-8-oxo-9,10,11,12-tetrahydro-8H-[1,4]diazepino[5′,6′:4,5]thieno[3,2-f]quinolin-3-yl)phenyl)azetidin-3-yl)methyl)piperazin-1-yl)phenyl)piperidine-2,6-dione] cannot be ordered by IC50: under 150 nM for the first, under 150 nM for the second.

`C[C@@H]1CNc2c(sc3ccc4nc(-c5ccc(C(=O)N[C@H]6CC[C@H](CN7CCN(c8ccc9c(C%10CCC(=O)NC%10=O)nn(C)c9c8)CC7)CC6)cc5F)ccc4c23)C(=O)N1` (stereo partly drawn) [Ex 5, N-(trans-4-((4-(3-(2,6-dioxopiperidin-3-yl)-1-methyl-1H-indazol-6-yl)piperazin-1-yl)methyl)cyclohexyl)-3-fluoro-4-((R)-10-methyl-8-oxo-9,10,11,12-tetrahydro-8H-[1,4]diazepino[5′,6′:4,5]thieno[3,2-f]quinolin-3-yl)benzamide] and `C[C@@H]1CNc2c(sc3ccc4nc(-c5ccc(C(=O)NC6CCN(c7ccc(C8CCC(=O)NC8=O)cc7)CC6)cc5F)ccc4c23)C(=O)N1` (stereo partly drawn) [Ex 7, N-(1-(4-(2,6-Dioxopiperidin-3-yl)phenyl)piperidin-4-yl)-3-fluoro-4-((R)-10-methyl-8-oxo-9,10,11,12-tetrahydro-8H-[1,4]diazepino[5′,6′:4,5]thieno[3,2-f]quinolin-3-yl)benzamide] cannot be ordered by IC50: under 150 nM for the first, under 150 nM for the second.

`C[C@@H]1CNc2c(sc3ccc4nc(-n5cc(C6CCN(CCN7CCC(c8ccc(C9CCC(=O)NC9=O)cc8)CC7)CC6)nn5)ccc4c23)C(=O)N1` (stereo partly drawn) [Ex 47, 3-(4-(1-(2-(4-(1-((R)-10-Methyl-8-oxo-9,10,11,12-tetrahydro-8H-[1,4]diazepino[5′,6′:4,5]thieno[3,2-f]quinolin-3-yl)-1H-1,2,3-triazol-4-yl)piperidin-1-yl)ethyl)piperidin-4-yl)phenyl)piperidine-2,6-dione] and `C[C@@H]1CNc2c(sc3ccc4nc(-n5cc(C6CN(CCN7CCC(c8ccc(C9CCC(=O)NC9=O)cc8)CC7)C6)nn5)ccc4c23)C(=O)N1` (stereo partly drawn) [Ex 54, 3-(4-(1-(2-(3-(1-((R)-10-Methyl-8-oxo-9,10,11,12-tetrahydro-8H-[1,4]diazepino[5′,6′:4,5]thieno[3,2-f]quinolin-3-yl)-1H-1,2,3-triazol-4-yl)azetidin-1-yl)ethyl)piperidin-4-yl)phenyl)piperidine-2,6-dione] cannot be ordered by IC50: under 150 nM for the first, under 150 nM for the second.

First: C[C@@H]1CNc2c(sc3ccc4nc(-c5cnc(C6CCN(CCN7CCN(c8ccc(C9CCC(=O)NC9=O)cc8)CC7)CC6)nc5)ccc4c23)C(=O)N1 (stereo partly drawn) [Ex 36, 3-(4-(4-(2-(4-(5-((R)-10-Methyl-8-oxo-9,10,11,12-tetrahydro-8H-[1,4]diazepino[5′,6′:4,5]thieno[3,2-f]quinolin-3-yl)pyrimidin-2-yl)piperidin-1-yl)ethyl)piperazin-1-yl)phenyl)piperidine-2,6-dione]
Second: C[C@@H]1CNc2c(sc3ccc4nc(-c5ccc(C6CCN(CCN7CCN(c8ccc(C9CCC(=O)NC9=O)cc8)CC7)CC6)cn5)ccc4c23)C(=O)N1 (stereo partly drawn) [Ex 35, 3-(4-(4-(2-(4-(6-((R)-10-Methyl-8-oxo-9,10,11,12-tetrahydro-8H-[1,4]diazepino[5′,6′:4,5]thieno[3,2-f]quinolin-3-yl)pyridin-3-yl)piperidin-1-yl)ethyl)piperazin-1-yl)phenyl)piperidine-2,6-dione]
The IC50 of the first is higher: 151 to 500 nM for the first, under 150 nM for the second. The second is the more potent here.

First: C[C@@H]1CNc2c(sc3ccc4nc(-c5cccc(C6CCN(CCN7CCN(c8ccc(C9CCC(=O)NC9=O)cc8)CC7)CC6)c5)ccc4c23)C(=O)N1 (stereo partly drawn) [Ex 18, 3-(4-(4-(2-(4-(3-((R)-10-Methyl-8-oxo-9,10,11,12-tetrahydro-8H-[1,4]diazepino[5′,6′:4,5]thieno[3,2-f]quinolin-3-yl)phenyl)piperidin-1-yl)ethyl)piperazin-1-yl)phenyl)piperidine-2,6-dione]
Second: C[C@@H]1COc2c(sc3ccc4nc(-c5ccc(C6CCN(CCN7CCN(c8ccc(C9CCC(=O)NC9=O)cc8)CC7)CC6)cc5)ccc4c23)C(=O)N1 (stereo partly drawn) [Ex 32, 3-(4-(4-(2-(4-(4-((R)-10-Methyl-8-oxo-8,9,10,11-tetrahydro-[1,4]oxazepino[7′,6′:4,5]thieno[3,2-f]quinolin-3-yl)phenyl)piperidin-1-yl)ethyl)piperazin-1-yl)phenyl)piperidine-2,6-dione]
The IC50 of the first is lower: under 150 nM for the first, 151 to 500 nM for the second. The first is the more potent here.

First: C[C@@H]1COc2c(sc3ccc4nc(-c5ccc(N6CCN(CCN7CCN(c8ccc9c(C%10CCC(=O)NC%10=O)nn(C)c9c8)CC7)CC6)cc5)ccc4c23)C(=O)N1 (stereo partly shown) [Ex 26]
Second: C[C@@H]1CNc2c(sc3ccc4nc(-c5ccc(N6CCC(CCN7CCN(c8ccc(C9CCC(=O)NC9=O)cc8)CC7)CC6)cc5)ccc4c23)C(=O)N1 (stereo partly drawn) [Ex 39, 3-(4-(4-(2-(1-(4-((R)-10-methyl-8-oxo-9,10,11,12-tetrahydro-8H-[1,4]diazepino[5′,6′:4,5]thieno[3,2-f]quinolin-3-yl)phenyl)piperidin-4-yl)ethyl)piperazin-1-yl)phenyl)piperidine-2,6-dione]
The IC50 of the first is lower: under 150 nM for the first, 151 to 500 nM for the second. The first is the more potent here.
